What was measured:
Assay in all cases: KINOMEscan competition binding
Details in all cases: compound 10.0 µM
PIM1 (human) = PIM1 (human) (UniProt P11309)
DAPK2 (human) = DAPK2 (human) (UniProt Q9UIK4)
SYK (human) = SYK (human) (UniProt P43405)
MELK (human) = MELK (human) (UniProt Q14680)
MAP3K2 (human) = MAP3K2 (human) (UniProt Q9Y2U5)
RPS6KA3 KD1 (human) = RPS6KA3 KD1 (human) (UniProt P51812)
MAP2K3 (human) = MAP2K3 (human) (UniProt P46734)
[1] = biological target: JAK1 JH2 pseudokinase (human) (UniProt P23458)
ERBB3 (human) = ERBB3 (human) (UniProt P21860)
CSNK1G1 (human) = CSNK1G1 (human) (UniProt Q9HCP0)
MST4 (human) = MST4 (human) (UniProt Q9P289)
RIOK2 (human) = RIOK2 (human) (UniProt Q9BVS4)
TNK1 (human) = TNK1 (human) (UniProt Q13470)
[2] = tested on: FGFR3 (human), P22607 [G697C]
CSNK1E (human) = CSNK1E (human) (UniProt P49674)
CDK8 (human) = CDK8 (human) (UniProt P49336)
CDC42BPB (human) = CDC42BPB (human) (UniProt Q9Y5S2)
BMPR1A (human) = BMPR1A (human) (UniProt P36894)
MKNK2 (human) = MKNK2 (human) (UniProt Q9HBH9)
PRKCD (human) = PRKCD (human) (UniProt Q05655)
PDGFRB (human) = PDGFRB (human) (UniProt P09619)
ACVR2B (human) = ACVR2B (human) (UniProt Q13705)
IRAK3 (human) = IRAK3 (human) (UniProt Q9Y616)
PAK7 (human) = PAK7 (human) (UniProt Q9P286)
FGFR2 (human) = FGFR2 (human) (UniProt P21802)
CDK15 (human) = CDK15 (human) (UniProt Q96Q40)
PIK3CB (human) = PIK3CB (human) (UniProt P42338)
CSNK1D (human) = CSNK1D (human) (UniProt P48730)
EPHB6 (human) = EPHB6 (human) (UniProt O15197)
PTK6 (human) = PTK6 (human) (UniProt Q13882)
TTK (human) = TTK (human) (UniProt P33981)
RIPK4 (human) = RIPK4 (human) (UniProt P57078)
CDKL3 (human) = CDKL3 (human) (UniProt Q8IVW4)
PRKACB (human) = PRKACB (human) (UniProt P22694)
FLT3 (human) = FLT3 (human) (UniProt P36888)
CDC2L2 (human) = CDC2L2 (human) (UniProt Q9UQ88)
OXSR1 (human) = OXSR1 (human) (UniProt O95747)
CSNK1G3 (human) = CSNK1G3 (human) (UniProt Q9Y6M4)
DYRK2 (human) = DYRK2 (human) (UniProt Q92630)
FES (human) = FES (human) (UniProt P07332)

Sequence of PIK3CB (human) (P42338 whole entry, looked up): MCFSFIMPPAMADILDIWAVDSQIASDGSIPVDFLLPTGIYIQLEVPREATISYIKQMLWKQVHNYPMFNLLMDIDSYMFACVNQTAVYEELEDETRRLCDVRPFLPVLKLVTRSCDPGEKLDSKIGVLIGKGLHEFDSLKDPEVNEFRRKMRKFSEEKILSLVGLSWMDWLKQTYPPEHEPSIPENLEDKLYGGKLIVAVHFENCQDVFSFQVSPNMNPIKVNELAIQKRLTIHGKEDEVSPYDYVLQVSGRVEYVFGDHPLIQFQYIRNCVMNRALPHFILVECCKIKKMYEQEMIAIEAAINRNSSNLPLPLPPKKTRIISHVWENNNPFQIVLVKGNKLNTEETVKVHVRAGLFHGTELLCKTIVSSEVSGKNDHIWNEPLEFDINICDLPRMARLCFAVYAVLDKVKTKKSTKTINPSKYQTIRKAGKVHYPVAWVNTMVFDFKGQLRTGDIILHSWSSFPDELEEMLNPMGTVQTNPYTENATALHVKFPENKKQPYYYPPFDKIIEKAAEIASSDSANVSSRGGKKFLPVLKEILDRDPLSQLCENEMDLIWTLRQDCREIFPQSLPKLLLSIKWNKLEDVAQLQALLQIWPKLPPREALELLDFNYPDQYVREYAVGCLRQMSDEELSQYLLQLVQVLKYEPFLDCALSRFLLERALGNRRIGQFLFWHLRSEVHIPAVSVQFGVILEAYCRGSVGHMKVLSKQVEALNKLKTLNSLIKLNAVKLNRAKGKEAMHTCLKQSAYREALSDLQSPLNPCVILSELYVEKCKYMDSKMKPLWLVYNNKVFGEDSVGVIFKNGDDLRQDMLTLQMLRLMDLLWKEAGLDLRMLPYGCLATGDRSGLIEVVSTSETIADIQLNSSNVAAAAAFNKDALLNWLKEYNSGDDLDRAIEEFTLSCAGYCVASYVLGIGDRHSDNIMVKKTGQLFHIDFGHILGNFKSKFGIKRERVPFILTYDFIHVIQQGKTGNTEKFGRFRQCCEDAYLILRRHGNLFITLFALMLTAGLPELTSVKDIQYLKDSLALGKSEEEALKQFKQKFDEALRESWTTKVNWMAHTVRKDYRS
Sequence of ACVR2B (human) (Q13705 whole entry, looked up): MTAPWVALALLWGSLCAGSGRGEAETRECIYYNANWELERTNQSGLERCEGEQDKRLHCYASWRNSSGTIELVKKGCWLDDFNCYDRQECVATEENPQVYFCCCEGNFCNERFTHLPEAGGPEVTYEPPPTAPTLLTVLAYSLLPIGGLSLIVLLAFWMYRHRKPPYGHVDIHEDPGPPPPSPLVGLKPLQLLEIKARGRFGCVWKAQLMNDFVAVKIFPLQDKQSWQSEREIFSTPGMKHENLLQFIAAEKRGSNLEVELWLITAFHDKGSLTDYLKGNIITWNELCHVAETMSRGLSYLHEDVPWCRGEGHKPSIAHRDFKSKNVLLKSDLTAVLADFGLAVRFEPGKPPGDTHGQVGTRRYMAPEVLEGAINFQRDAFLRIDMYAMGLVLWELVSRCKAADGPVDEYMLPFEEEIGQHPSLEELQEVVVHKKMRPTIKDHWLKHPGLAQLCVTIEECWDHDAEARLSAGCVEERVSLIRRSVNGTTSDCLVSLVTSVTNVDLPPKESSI
Sequence of PDGFRB (human) (P09619 whole entry, looked up): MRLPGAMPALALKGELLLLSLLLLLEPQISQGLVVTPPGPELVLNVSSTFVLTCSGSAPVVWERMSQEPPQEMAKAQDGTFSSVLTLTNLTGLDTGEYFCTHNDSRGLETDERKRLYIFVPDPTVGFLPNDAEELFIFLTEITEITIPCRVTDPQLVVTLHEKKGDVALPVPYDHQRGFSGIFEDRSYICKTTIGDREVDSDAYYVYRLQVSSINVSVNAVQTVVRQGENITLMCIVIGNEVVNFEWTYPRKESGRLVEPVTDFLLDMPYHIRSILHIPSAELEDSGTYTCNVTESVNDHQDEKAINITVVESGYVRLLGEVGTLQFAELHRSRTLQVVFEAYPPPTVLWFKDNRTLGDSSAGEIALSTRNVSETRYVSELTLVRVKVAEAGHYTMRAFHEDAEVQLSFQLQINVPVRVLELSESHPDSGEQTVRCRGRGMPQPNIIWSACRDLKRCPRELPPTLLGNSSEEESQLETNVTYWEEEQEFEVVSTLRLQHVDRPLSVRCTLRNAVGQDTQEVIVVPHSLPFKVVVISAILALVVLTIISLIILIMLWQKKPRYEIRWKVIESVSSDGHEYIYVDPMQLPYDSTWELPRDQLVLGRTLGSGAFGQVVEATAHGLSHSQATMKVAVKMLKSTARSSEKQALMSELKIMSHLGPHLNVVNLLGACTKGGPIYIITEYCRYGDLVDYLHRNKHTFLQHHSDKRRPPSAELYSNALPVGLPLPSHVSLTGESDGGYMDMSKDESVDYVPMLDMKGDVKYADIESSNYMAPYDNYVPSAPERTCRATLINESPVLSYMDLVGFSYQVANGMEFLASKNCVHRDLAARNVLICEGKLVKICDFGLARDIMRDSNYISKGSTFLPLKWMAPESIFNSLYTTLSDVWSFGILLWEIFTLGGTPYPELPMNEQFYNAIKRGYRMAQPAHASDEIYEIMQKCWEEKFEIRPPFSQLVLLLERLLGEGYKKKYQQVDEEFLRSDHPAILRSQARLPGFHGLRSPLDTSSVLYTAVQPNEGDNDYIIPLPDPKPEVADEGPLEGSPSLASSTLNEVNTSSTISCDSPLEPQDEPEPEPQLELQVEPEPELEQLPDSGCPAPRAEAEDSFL
Sequence of TNK1 (human) (Q13470 whole entry, looked up): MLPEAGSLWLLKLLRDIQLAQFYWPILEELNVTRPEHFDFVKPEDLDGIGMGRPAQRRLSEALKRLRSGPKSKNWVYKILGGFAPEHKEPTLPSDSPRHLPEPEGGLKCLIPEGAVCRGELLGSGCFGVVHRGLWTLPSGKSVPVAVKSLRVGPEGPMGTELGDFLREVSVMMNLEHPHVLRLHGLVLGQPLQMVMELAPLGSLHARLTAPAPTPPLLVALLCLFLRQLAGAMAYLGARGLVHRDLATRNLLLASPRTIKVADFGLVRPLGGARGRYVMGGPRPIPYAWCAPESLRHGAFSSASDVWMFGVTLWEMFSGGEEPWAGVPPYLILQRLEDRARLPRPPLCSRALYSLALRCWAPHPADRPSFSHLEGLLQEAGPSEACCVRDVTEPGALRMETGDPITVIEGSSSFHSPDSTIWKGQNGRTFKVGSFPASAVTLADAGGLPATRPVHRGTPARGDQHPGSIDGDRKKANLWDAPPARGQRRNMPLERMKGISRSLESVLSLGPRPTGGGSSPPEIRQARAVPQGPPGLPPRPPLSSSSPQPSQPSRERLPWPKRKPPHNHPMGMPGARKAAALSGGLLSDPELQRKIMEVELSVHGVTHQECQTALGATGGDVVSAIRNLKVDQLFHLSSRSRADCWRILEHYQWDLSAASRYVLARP
Sequence of CDC2L2 (human) (Q9UQ88 whole entry, looked up): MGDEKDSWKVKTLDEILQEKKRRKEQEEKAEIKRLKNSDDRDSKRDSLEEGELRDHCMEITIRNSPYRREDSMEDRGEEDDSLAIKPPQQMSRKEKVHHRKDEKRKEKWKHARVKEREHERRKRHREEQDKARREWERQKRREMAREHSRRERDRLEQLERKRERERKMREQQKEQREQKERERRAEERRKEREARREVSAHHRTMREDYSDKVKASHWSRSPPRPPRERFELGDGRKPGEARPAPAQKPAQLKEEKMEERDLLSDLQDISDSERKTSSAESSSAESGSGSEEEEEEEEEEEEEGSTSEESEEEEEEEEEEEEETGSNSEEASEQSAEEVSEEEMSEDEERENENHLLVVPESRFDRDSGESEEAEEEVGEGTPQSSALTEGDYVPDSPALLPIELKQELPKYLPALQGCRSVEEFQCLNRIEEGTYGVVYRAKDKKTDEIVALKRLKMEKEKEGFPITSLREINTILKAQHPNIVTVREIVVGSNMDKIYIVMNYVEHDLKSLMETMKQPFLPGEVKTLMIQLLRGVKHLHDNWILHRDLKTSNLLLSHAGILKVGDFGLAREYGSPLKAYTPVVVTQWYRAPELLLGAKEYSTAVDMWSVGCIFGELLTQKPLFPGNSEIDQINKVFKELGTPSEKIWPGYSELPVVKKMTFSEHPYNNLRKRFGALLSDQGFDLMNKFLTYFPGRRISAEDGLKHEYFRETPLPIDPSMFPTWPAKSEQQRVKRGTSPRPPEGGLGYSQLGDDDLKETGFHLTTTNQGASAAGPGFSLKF
Sequence of DAPK2 (human) (Q9UIK4 whole entry, looked up): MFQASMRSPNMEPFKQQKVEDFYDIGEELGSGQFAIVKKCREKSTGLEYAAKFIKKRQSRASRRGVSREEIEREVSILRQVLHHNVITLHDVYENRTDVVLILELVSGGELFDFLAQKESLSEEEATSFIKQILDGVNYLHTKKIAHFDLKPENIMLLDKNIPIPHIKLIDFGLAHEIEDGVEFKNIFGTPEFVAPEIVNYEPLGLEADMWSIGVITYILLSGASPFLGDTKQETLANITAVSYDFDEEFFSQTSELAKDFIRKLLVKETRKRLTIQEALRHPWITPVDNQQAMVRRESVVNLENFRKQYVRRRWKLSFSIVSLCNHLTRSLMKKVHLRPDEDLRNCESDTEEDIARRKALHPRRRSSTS
Sequence of BMPR1A (human) (P36894 whole entry, looked up): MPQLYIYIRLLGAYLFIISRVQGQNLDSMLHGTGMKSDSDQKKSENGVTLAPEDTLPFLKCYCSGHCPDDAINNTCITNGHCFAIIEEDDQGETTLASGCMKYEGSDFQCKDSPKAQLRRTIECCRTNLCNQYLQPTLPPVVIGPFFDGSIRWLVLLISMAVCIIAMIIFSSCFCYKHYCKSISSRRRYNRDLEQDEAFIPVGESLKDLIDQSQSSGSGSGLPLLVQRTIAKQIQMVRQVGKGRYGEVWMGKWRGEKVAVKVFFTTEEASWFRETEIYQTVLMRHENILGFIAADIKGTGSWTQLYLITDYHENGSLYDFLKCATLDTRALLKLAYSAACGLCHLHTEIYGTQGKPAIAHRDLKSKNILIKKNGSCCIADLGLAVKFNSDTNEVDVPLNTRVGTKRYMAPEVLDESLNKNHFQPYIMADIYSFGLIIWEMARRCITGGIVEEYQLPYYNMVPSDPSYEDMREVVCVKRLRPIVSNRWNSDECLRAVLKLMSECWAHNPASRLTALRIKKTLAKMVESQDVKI

SMILES	kinase still bound, per cent of control (DAPK2 (human))	kinase still bound, per cent of control (MELK (human))	kinase still bound, per cent of control (MAP3K2 (human))	kinase still bound, per cent of control (MAP2K3 (human))	kinase still bound, per cent of control (CSNK1G1 (human))	kinase still bound, per cent of control (MST4 (human))	kinase still bound, per cent of control (RIOK2 (human))	kinase still bound, per cent of control (TNK1 (human))	kinase still bound, per cent of control (CSNK1E (human))	kinase still bound, per cent of control (CDC42BPB (human))	kinase still bound, per cent of control (BMPR1A (human))	kinase still bound, per cent of control (MKNK2 (human))	kinase still bound, per cent of control (PRKCD (human))	kinase still bound, per cent of control (PDGFRB (human))	kinase still bound, per cent of control (ACVR2B (human))	kinase still bound, per cent of control (IRAK3 (human))	kinase still bound, per cent of control (PAK7 (human))	kinase still bound, per cent of control (FGFR2 (human))	kinase still bound, per cent of control (CDK15 (human))	kinase still bound, per cent of control (PIK3CB (human))	other results
CCCS(=O)(=O)Nc1ccc(F)c(C(=O)c2c[nH]c3ncc(Cl)cc23)c1F	80%	76%	62%	53%	66%	96%	3%	96%	60%	100%	13%	84%	100%	0%	28%	26%	44%	59%	100%	100%	kinase still bound, per cent of control (PIM1 (human)): 77%; kinase still bound, per cent of control (SYK (human)): 100%; kinase still bound, per cent of control (RPS6KA3 KD1 (human)): 56%; kinase still bound, per cent of control [1]: 100%; kinase still bound, per cent of control (ERBB3 (human)): 28%; kinase still bound, per cent of control [2]: 100%; kinase still bound, per cent of control (CDK8 (human)): 2.2%; kinase still bound, per cent of control (CSNK1D (human)): 91%; kinase still bound, per cent of control (EPHB6 (human)): 3.6%; kinase still bound, per cent of control (PTK6 (human)): 0.5%; kinase still bound, per cent of control (TTK (human)): 60%; kinase still bound, per cent of control (RIPK4 (human)): 89%; kinase still bound, per cent of control (CDKL3 (human)): 100%; kinase still bound, per cent of control (PRKACB (human)): 100%; kinase still bound, per cent of control (FLT3 (human)): 14%; kinase still bound, per cent of control (CDC2L2 (human)): 95%; kinase still bound, per cent of control (OXSR1 (human)): 24%; kinase still bound, per cent of control (CSNK1G3 (human)): 79%
CC(=O)c1c(C)c2cnc(Nc3ccc(N4CCNCC4)cn3)nc2n(C2CCCC2)c1=O	2.4%	40%	49%	19%	83%	26%	56%	61%	16%	91%	42%	20%	90%	29%	100%	36%	35%	95%	39%	7.3%	kinase still bound, per cent of control (DYRK2 (human)): 5.5%; kinase still bound, per cent of control (RPS6KA3 KD1 (human)): 28%; kinase still bound, per cent of control (FES (human)): 80%; kinase still bound, per cent of control (CSNK1D (human)): 22%; kinase still bound, per cent of control (EPHB6 (human)): 65%; kinase still bound, per cent of control (TTK (human)): 26%; kinase still bound, per cent of control (RIPK4 (human)): 79%; kinase still bound, per cent of control (CDKL3 (human)): 78%; kinase still bound, per cent of control (PRKACB (human)): 100%; kinase still bound, per cent of control (FLT3 (human)): 35%; kinase still bound, per cent of control (CDC2L2 (human)): 78%; kinase still bound, per cent of control (OXSR1 (human)): 81%
N#C/C(=C1/Nc2ccccc2S1)c1ccnc(NCCc2cccnc2)n1	34%	100%	100%	33%	42%	100%	2.4%	46%	60%	81%	98%	0.5%	100%	64%	98%	38%	76%	100%	86%	55%	kinase still bound, per cent of control (PIM1 (human)): 4.4%; kinase still bound, per cent of control (SYK (human)): 100%; kinase still bound, per cent of control (DYRK2 (human)): 0.7%; kinase still bound, per cent of control [1]: 2.6%; kinase still bound, per cent of control (ERBB3 (human)): 36%; kinase still bound, per cent of control [2]: 100%; kinase still bound, per cent of control (CDK8 (human)): 100%; kinase still bound, per cent of control (FES (human)): 100%; kinase still bound, per cent of control (CSNK1D (human)): 42%; kinase still bound, per cent of control (EPHB6 (human)): 3.2%; kinase still bound, per cent of control (PTK6 (human)): 59%; kinase still bound, per cent of control (TTK (human)): 62%; kinase still bound, per cent of control (RIPK4 (human)): 8%; kinase still bound, per cent of control (CDKL3 (human)): 100%; kinase still bound, per cent of control (PRKACB (human)): 100%; kinase still bound, per cent of control (FLT3 (human)): 100%; kinase still bound, per cent of control (CDC2L2 (human)): 85%; kinase still bound, per cent of control (OXSR1 (human)): 62%; kinase still bound, per cent of control (CSNK1G3 (human)): 100%
